These results are taken from paper PMC3242417 (Bioorganic & medicinal chemistry letters, 2011).

Where two headings read alike, the source gives them in different places.

The nature of data set [1]: in vitro.
The subject of data set [2] is HCV replicon. Kind of data set: microbe, parasite or virus in culture. It is filed as cell-based. The conditions noted are these: for EC90: read-out: Anti-HCV EC90; for EC50: read-out: Anti-HCV EC50.
The nature of data set [3]: in vitro. The conditions noted are these: human.
In data set [4] the test system is wild-type HBV. It is filed as cell-based. The conditions noted are these: in vitro.
Data set [5] has as its system HIV-1. The data set can be described thus: microbe, parasite or virus in culture. In kind it is cell-based. The conditions noted are these: for EC50: read-out: Anti-HIV-1 EC50.
The test system of data set [6] is HepG2 cells. The data set can be described thus: Toxicity to HepG2 cells. It is filed as cell-based. The settings on record: data not shown.
Data set [7] deals with CEM cells.
Data set [8] relates to four different cell lines.
The subject of data set [9] is PBM cells.
The subject of data set [10] is VERO cells.
Data set [11] can be described thus: in vitro. The settings on record: human. This is another data set of the same source.
Data set [12] concerns Huh-7 cells. Kind of data set: Cellular pharmacology: intracellular metabolites in Huh-7 cells by LC-MS/MS. It is filed as in vitro ADME. The settings on record: 50 μM, 37°C, 4 h.
Where [13] appears, read: Human immunodeficiency virus 1, read-out: Anti-HIV-1 EC90.

For the compound `COc1ncnc2c1ccn2[C@H]1O[C@H](CO)[C@@H](O)[C@@]1(C)F` [Compound 4i], the IC50 in [1] and in data set [3] was greater than 100 µM throughout. For the same compound, the 90% effect concentration (EC90) in [2] (Hepatitis C virus, Huh-7, 96 h) was greater than 10 µM.

In the case of `C[C@@]1(F)[C@H](O)[C@@H](CO)O[C@H]1n1cc(C#Cc2ccccc2)c2c(N)ncnc21` [Compound 17], the “anti-HBV activity (in words)” value in [4] was “weak anti-HBV activity”. Further, in data set [5], the “anti-HIV-1 activity (in words)” value was “anti-HIV-1 activity”. For the same compound, the EC90 in data set [2] (Hepatitis C virus, Huh-7, 96 h) was greater than 10 µM. In [6], the “toxicity to HepG2 cells (in words)” value is listed as “toxicity to HepG2 cells”.

On to “4-amino-7-iodo-1-(2-deoxy-2-fluoro-2-C-methyl-α-D-ribofuranosyl)-1H-pyrrolo[2,3-d]pyrimidine [Compound 4e]”, for which the figures for the IC50 in data set [7], in data set [9] and in data set [10] were 40.9 µM, greater than 100 µM and 65.9 µM, respectively. For the same compound, in data set [8], the “toxicity (in words)” value is on record as “toxicity”. Also, in data set [4], the “anti-HBV activity (in words)” value is given as “weak anti-HBV activity”. Besides, the EC50 was greater than 100 µM in data set [5] and 7 µM in [2] (HCV replicon, 96 h). The EC90 is greater than 100 µM in [5] (read-out: Anti-HIV-1 EC90) and 24.9 µM in data set [2] (HCV replicon, 96 h). In data set [2] (HCV replicon), the “anti-HCV activity (in words)” value was “modest anti-HCV activity”. For the same compound, in data set [6], the “toxicity to HepG2 cells (in words)” value was “toxicity to HepG2 cells”.

For the compound `C[C@@]1(F)[C@H](O)[C@@H](CO)O[C@@H]1n1cc(I)c2c(N)nc(N)nc21` [Compound 4g], in data set [11], the CC50 at 96 h was greater than 10 µM. Further, the concentration for an effect of 90% (EC90) in data set [2] (Hepatitis C virus, Huh-7, 96 h) is greater than 10 µM.

On to `C=Cc1cn([C@H]2O[C@H](CO)[C@@H](O)[C@@]2(C)F)c2ncnc(N)c12` [Compound 6], for which the “toxicity (in words)” value in data set [8] is given as “strong toxicity across all cell lines”. Further, in data set [5], the “anti-HIV-1 activity (in words)” value is “anti-HIV-1 activity”. In data set [2] (HCV replicon), the “anti-HCV activity (in words)” value is on record as “moderate anti-HCV activity”.

On to `C#Cc1cn([C@@H]2O[C@H](CO)[C@@H](O)[C@@]2(C)F)c2nc(N)nc(N)c12` [Compound 15], for which the CC50 at 96 h in data set [11] is greater than 10 µM. Moreover, the 90% effect concentration (EC90) in data set [2] (Hepatitis C virus, Huh-7, 96 h) was greater than 10 µM.

In the case of `COC(=O)/C=C/c1cn([C@H]2O[C@H](CO)[C@@H](O)[C@@]2(C)F)c2ncnc(N)c12` [Compound 10], the 50% inhibitory concentration (IC50) in data set [1] and in data set [3] was greater than 100 µM in each case. Further, in [8] (four different cell lines), the “concentration up to which no cytotoxicity was observed” value is greater than 100 µM. Moreover, the “anti-HBV activity (in words)” value in data set [4] was “no anti-HBV activity”. Further, the “anti-HIV-1 activity (in words)” value in data set [5] was “strong anti-HIV-1 activity”. Also, the EC90 in [2] (Hepatitis C virus, Huh-7, 96 h) is greater than 10 µM.

On to `CCc1cn([C@H]2O[C@H](CO)[C@@H](O)[C@@]2(C)F)c2ncnc(N)c12` [Compound 8], for which, in [5] (setting [13]), the 90% effect concentration (EC90) was greater than 100 µM. Besides, the half-maximal inhibitory concentration (IC50) in data set [3] was greater than 100 µM.

For the compound `C[C@@]1(F)[C@H](O)[C@@H](CO)O[C@H]1n1ccc2c(N)nc(N)nc21` [Compound 5f], the IC50 in data set [1] and in data set [3] was greater than 100 µM in each case. The “deamination to 7-deazaguanosine nucleoside or nucleoside phosphate” value in data set [12] is listed as “no deamination had occurred”. Besides, in data set [12], the “nucleoside triphosphate found intracellularly” value was “only a trace amount of nucleoside triphosphate was found”. Further, in data set [5] (setting [13]), the EC90 was greater than 100 µM.

Regarding `CNc1ncnc2c1c(F)cn2[C@@H]1O[C@H](CO)[C@@H](O)[C@@]1(C)F` [Compound 5h], the IC50 in data set [1] and in [3] was greater than 100 µM in each case.

For the compound `C[C@@]1(F)[C@H](O)[C@@H](CO)O[C@H]1n1cc(Cl)c2c(N)ncnc21` [Compound 5c], the concentration for an effect of 90% (EC90) in data set [5] (setting [13]) was greater than 100 µM.

In the case of `C[C@@]1(F)[C@H](O)[C@@H](CO)O[C@@H]1n1cc(C#Cc2ccccc2)c2c(N)ncnc21` [Compound 16], the “anti-HBV activity (in words)” value in data set [4] was “no anti-HBV activity”. The “anti-HIV-1 activity (in words)” value in data set [5] is “anti-HIV-1 activity”.

As to `CCOC(=O)[C@H](C)NP(=O)(OC[C@H]1O[C@@H](n2ccc3c(N)nc(N)nc32)[C@](C)(F)[C@@H]1O)Oc1ccccc1` (some centres unmarked) [Compound 20], in data set [12], the “deamination to 7-deazaguanosine nucleoside or nucleoside phosphate” value is on record as “no deamination had occurred” and the “nucleoside triphosphate found intracellularly” value is “only a trace amount of nucleoside triphosphate was found”.

As for `C=Cc1cn([C@@H]2O[C@H](CO)[C@@H](O)[C@@]2(C)F)c2ncnc(N)c12` [Compound 7], the “toxicity (in words)” value in [8] is “exhibited toxicity in the ribosomal RNA assay and in three independent cell lines”. For the same compound, in [5], the “anti-HIV-1 activity (in words)” value is “anti-HIV-1 activity”.

On to `C[C@@]1(F)[C@H](O)[C@@H](CO)O[C@H]1n1cc(I)c2c(N)nc(N)nc21` [Compound 5g], for which the concentration for an effect of 90% (EC90) in data set [5] (setting [13]) was greater than 100 µM.

Consider `C[C@@]1(F)[C@H](O)[C@@H](CO)O[C@H]1n1cc(F)c2c(N)ncnc21` [Compound 5b], for which, in data set [1], the IC50 was greater than 100 µM. In [11], the CC50 at 96 h was greater than 10 µM.

In data set [11], `C[C@@]1(F)[C@H](O)[C@@H](CO)O[C@@H]1n1cc(Cl)c2c(N)ncnc21` [Compound 4c] registered a CC50 at 96 h greater than 10 µM. Also, the EC90 in data set [2] (Hepatitis C virus, Huh-7, 96 h) was greater than 10 µM.

As for `C[C@@]1(F)[C@H](O)[C@@H](CO)O[C@@H]1n1ccc2c(N)ncnc21` [Compound 4a], the concentration for half-maximal inhibition (IC50) in data set [1] and in [3] was greater than 100 µM each time. The compound also displayed a CC50 at 96 h in [11] greater than 10 µM. The EC90 was greater than 100 µM in data set [5] (setting [13]) and greater than 10 µM in data set [2] (Hepatitis C virus, Huh-7, 96 h).

On to `C[C@@]1(F)[C@H](O)[C@@H](CO)O[C@@H]1n1cc(F)c2c(N)ncnc21` [Compound 4b], for which, in [1], the IC50 was greater than 100 µM. In addition, the EC90 is greater than 100 µM in data set [5] (setting [13]) and greater than 10 µM in [2] (Hepatitis C virus, Huh-7, 96 h).

With `C#Cc1cn([C@H]2O[C@H](CO)[C@@H](O)[C@@]2(C)F)c2nc(N)nc(N)c12` [Compound 14], the “anti-HBV activity (in words)” value in data set [4] is listed as “no anti-HBV activity”. In data set [5], the “anti-HIV-1 activity (in words)” value is on record as “anti-HIV-1 activity”.

As for `C#Cc1cn([C@H]2O[C@H](CO)[C@@H](O)[C@@]2(C)F)c2ncnc(N)c12` [Compound 12], in data set [5] (setting [13]), the 90% effect concentration (EC90) was greater than 100 µM. The IC50 in data set [3] was greater than 100 µM.

In turn, `CCc1cn([C@@H]2O[C@H](CO)[C@@H](O)[C@@]2(C)F)c2ncnc(N)c12` [Compound 9] yielded a CC50 at 96 h in data set [11] greater than 10 µM. Also, the concentration for an effect of 90% (EC90) in data set [2] (Hepatitis C virus, Huh-7, 96 h) is greater than 10 µM. This compound also gave an IC50 in [3] greater than 100 µM.

In the case of `C[C@@]1(F)[C@H](O)[C@@H](CO)O[C@H]1n1ccc2c(N)ncnc21` [Compound 5a], the IC50 in data set [1] and in data set [3] was greater than 100 µM in each case.

Consider “4-amino-7-iodo-1-(2-deoxy-2-fluoro-2-C-methyl-β-D-ribofuranosyl)-1H-pyrrolo[2,3-d]pyrimidine [Compound 5e]”, for which the IC50 in data set [7] is 24 µM; in data set [9], 53.2 µM; in [10] it was 21.4 µM. Besides, in data set [8], the “toxicity (in words)” value is “toxicity”. The half-maximal effective concentration (EC50) in data set [5] was 94 µM; in data set [2] (HCV replicon, 96 h), 1.1 µM. For the same compound, the 90% effect concentration (EC90) in data set [5] (read-out: Anti-HIV-1 EC90) is greater than 100 µM; in [2] (HCV replicon, 96 h), greater than 33 µM. Also, in data set [2] (HCV replicon), the “anti-HCV activity (in words)” value is listed as “modest anti-HCV activity”.

In the case of `C[C@@]1(F)[C@H](O)[C@@H](CO)O[C@@H]1n1ccc2c(N)nc(N)nc21` [Compound 4f], the half-maximal inhibitory concentration (IC50) in [1] and in data set [3] was greater than 100 µM throughout. In [11], this compound yielded a CC50 at 96 h greater than 10 µM. Besides, the EC90 in [2] (Hepatitis C virus, Huh-7, 96 h) is greater than 10 µM.

`CNc1ncnc2c1c(F)cn2[C@H]1O[C@H](CO)[C@@H](O)[C@@]1(C)F` [Compound 4h]: the IC50 in data set [1] and in data set [3] was greater than 100 µM throughout. In addition, the CC50 at 96 h in [11] was greater than 10 µM. Further, the 90% effect concentration (EC90) is greater than 100 µM in [5] (setting [13]) and greater than 10 µM in data set [2] (Hepatitis C virus, Huh-7, 96 h).

For `COC(=O)/C=C/c1cn([C@@H]2O[C@H](CO)[C@@H](O)[C@@]2(C)F)c2ncnc(N)c12` [Compound 11], the IC50 in [1] and in [3] was greater than 100 µM each time. Moreover, in data set [11], the CC50 at 96 h is greater than 10 µM.

In data set [11], `C#Cc1cn([C@@H]2O[C@H](CO)[C@@H](O)[C@@]2(C)F)c2ncnc(N)c12` [Compound 13] yielded a CC50 at 96 h greater than 10 µM. The EC90 in data set [2] (Hepatitis C virus, Huh-7, 96 h) was greater than 10 µM. Besides, the half-inhibitory concentration (IC50) in data set [3] was greater than 100 µM.

In the case of `C[C@@]1(F)[C@H](O)[C@@H](CO)O[C@@H]1n1cc(Br)c2c(N)ncnc21` [Compound 4d], the EC90 in data set [5] (setting [13]) was greater than 100 µM; in data set [2] (Hepatitis C virus, Huh-7, 96 h), greater than 10 µM.

Turning to `COc1ncnc2c1ccn2[C@@H]1O[C@H](CO)[C@@H](O)[C@@]1(C)F` [Compound 5i], the concentration for half-maximal inhibition (IC50) in data set [1] and in data set [3] was greater than 100 µM throughout. The same compound showed a CC50 at 96 h in data set [11] greater than 10 µM.

In general, IC50 refers to the point on the concentration scale where inhibition reaches its midpoint. What is called EC90 is the concentration at which the effect reaches the 90% level. Usually EC50 stands for the concentration needed to bring the measured effect to its halfway point.
